From patent US10722520B2, “Heterocyclic compounds and their use in preventing or treating bacterial infections” (MUTABILIS, priority 2016, dated 2020)
Counter-ions that a name gives are not always drawn. Like-named read-outs stand apart in the source and are kept apart here.

How the values were obtained:
[1] = test system: E. cloacae P99; assay: MIC of compound alone, broth microdilution; format: cell-based; settings: Enterobacter cloacae; strain P99; compound alone; read-out: MIC compounds of the invention alone
Experimental: (§1) Log phase bacterial suspensions were adjusted to a final density of 5×10^5 cfu/mL in cation-adjusted Mueller-Hinton broth (Becton-Dickinson) and added to each well (98 μL). Microplates were incubated for 16-20 h at 35° C. in ambient air. The MIC of the compounds was defined as the lowest concentration of said compounds that prevented bacterial growth as read by visual inspection.

[2] = test system: E. coli 190317; assay: MIC of compound alone, broth microdilution; format: cell-based; settings: Escherichia coli; strain 190317; compound alone; read-out: MIC compounds of the invention alone
Experimental: as §1

[3] = test system: K. pneumoniae 6299; assay: MIC of compound alone, broth microdilution; format: cell-based; settings: Klebsiella pneumoniae; strain 6299; compound alone; read-out: MIC compounds of the invention alone
Experimental: as §1

[4] = test system: K. pneumoniae BAA-1898; assay: MIC of compound alone, broth microdilution; format: cell-based; settings: Klebsiella pneumoniae, BAA1898; strain BAA-1898; compound alone; read-out: MIC compounds of the invention alone
Experimental: as §1

[5] = test system: P. aeruginosa CIP107051; assay: MIC of compound alone, broth microdilution; format: cell-based; settings: Pseudomonas aeruginosa; strain CIP107051; compound alone; read-out: MIC compounds of the invention alone
Experimental: as §1

[6] = molecular target: CMY-37 (Citrobacter freundii, UniProt P05193); settings: read-out: IC50 β-lactamase CMY-37
[7] = molecular target: AmpC (P99) (Enterobacter cloacae, UniProt P05364); assay: biochemical
[8] = molecular target: AmpC (PAE) (Pseudomonas aeruginosa, UniProt P24735); assay: biochemical
[9] = molecular target: OXA-15 (Pseudomonas aeruginosa, UniProt Q51574); assay: biochemical
[10] = molecular target: TEM-1 (Escherichia coli, UniProt P62593)
[11] = molecular target: SHV-1 (Klebsiella pneumoniae, UniProt P0AD64)
[12] = molecular target: CTX-M-15 (Escherichia coli, UniProt Q9EXV5)
[13] = molecular target: KPC-2 (Klebsiella pneumoniae, UniProt Q9F663)
[14] = molecular target: OXA-1 (Escherichia coli, UniProt P13661)
[15] = molecular target: OXA-11 (Pseudomonas aeruginosa, UniProt Q06778)
[16] = molecular target: OXA-48 (Klebsiella pneumoniae, UniProt Q6XEC0)

| SMILES | MIC [1] [µg/mL] | MIC [2] [µg/mL] | MIC [3] [µg/mL] | MIC [4] [µg/mL] | MIC [5] [µg/mL] | IC50 [6] [nM] | IC50 [7] [nM] | IC50 [8] [nM] | IC50 [9] [nM] | IC50 [10] [nM] | IC50 [11] [nM] | IC50 [12] [nM] | IC50 [13] [nM] | IC50 [14] [nM] | IC50 [15] [nM] | IC50 [16] [nM] | IC50 ([6]; class (C), nitrocefin 200 μM, 30-min pre-incubation, enzyme 0.2 nM) [nM] |
| --- | --- | --- | --- | --- | --- | --- | --- | --- | --- | --- | --- | --- | --- | --- | --- | --- | --- |
| NC(=O)c1cnn(C2=CC3CN(C2)C(=O)N3OS(=O)(=O)[O-])c1.[Na+] (stereo not drawn) [Example 7, sodium [3-(4-carbamoylpyrazol-1-yl)-7-oxo-1,6-diazabicyclo[3.2.1]oct-3-en-6-yl]sulfate] | > 32 | 16 | > 32 | > 32 | > 32 | 22 | 21 | 400 | 55 | 0.72 | 4.7 | 2.7 | 12 | 250 | 93 | 7.8 |  |
| N#Cc1cnn(C2=CC3CN(C2)C(=O)N3OS(=O)(=O)[O-])c1.[Na+] (stereo not drawn) [Example 8, sodium [3-(4-cyanopyrazol-1-yl)-7-oxo-1,6-diazabicyclo[3.2.1]oct-3-en-6-yl]sulfate] | > 32 | 8 | > 32 | > 32 | > 32 | 16 | 7.6 | 140 | 5.3 | 0.35 | 2.5 | 0.78 | 3.3 | 100 | 20 | 3.5 |  |
| COc1cnn(C2=CC3CN(C2)C(=O)N3OS(=O)(=O)[O-])c1.[Na+] (stereo not drawn) [Example 9, sodium [7-oxo-3-(4-methoxypyrazol-1-yl)-1,6-diazabicyclo[3.2.1]oct-3-en-6-yl]sulfate] | > 32 | > 32 | > 32 | > 32 | > 32 | 9.3 | 15 | 29 | 55 | 0.41 | 1.9 | 0.5 | 22 | 410 | 310 | 7 |  |
| NCCc1ccn(C2=CC3CN(C2)C(=O)N3OS(=O)(=O)O)n1 (stereo not drawn) [Example 10, [3-[3-(2-aminoethyl)pyrazol-1-yl]-7-oxo-1,6-diazabicyclo[3.2.1]oct-3-en-6-yl]hydrogen sulfate] | 8 | 1 | > 32 | 16 | 32 |  | 22 | 160 | 180 | 0.3 | 3.2 | 1.1 | 50 | 270 | 67 | 14 | 18 |
| O=C(NCCO)c1ccn(C2=CC3CN(C2)C(=O)N3OS(=O)(=O)[O-])n1.[Na+] (stereo not drawn) [Example 11, sodium [3-[3-(2-hydroxyethylcarbamoyl)pyrazol-1-yl]-7-oxo-1,6-diazabicyclo[3.2.1]oct-3-en-6-yl]sulfate] | 32 | 16 | > 32 | > 32 | > 32 | 53 | 27 | 430 | 78 | 1.2 | 7.6 | 1.4 | 12 | 95 | 21 | 7.7 |  |
| Nc1ncc(C(=O)Nc2ccn(C3=CC4CN(C3)C(=O)N4OS(=O)(=O)[O-])n2)s1.[Na+] (stereo not drawn) [Example 13, sodium [3-[3-[(2-aminothiazole-5-carbonyl)amino]pyrazol-1-yl]-7-oxo-1,6-diazabicyclo[3.2.1]oct-3-en-6-yl]sulfate] | > 32 | 32 | > 32 | > 32 | > 32 | 1.1 | 2.6 | 8.7 | 11 | 0.65 | 3.2 | 0.62 | 2.5 | 27 | 4 | 1.9 |  |
| O=C1N2CC(n3cc(F)cn3)=CC(C2)N1OS(=O)(=O)[O-].[Na+] (stereo not drawn) [Example 14, sodium (7-oxo-3-(4-fluoropyrazol-1-yl)-1,6-diazabicyclo[3.2.1]oct-3-en-6-yl) sulfate] | 16 | 4 | 16 | 8 | > 32 | 10 | 17 | 21 | 52 | 0.87 | 4 | 1.8 | 17 | 82 | 34 | 8.6 |  |
| NS(=O)(=O)c1cnn(C2=CC3CN(C2)C(=O)N3OS(=O)(=O)[O-])c1.[Na+] (stereo not drawn) [Example 16, sodium [7-oxo-3-(4-sulfamoylpyrazol-1-yl)-1,6-diazabicyclo[3.2.1]oct-3-en-6-yl]sulfate] | 32 | 8 | > 32 | 32 | > 32 | 21 | 13 | 180 | 42 | 0.56 | 3.4 | 1.4 | 4.6 | 100 | 650 | 12 |  |
| O=C1N2CC(n3ccc(F)n3)=CC(C2)N1OS(=O)(=O)[O-].[Na+] (stereo not drawn) [Example 18, sodium [7-oxo-3-(3-fluoropyrazol-1-yl)-1,6-diazabicyclo[3.2.1]oct-3-en-6-yl]sulfate] | 8 | 1 | 4 | 8 | > 32 | 18 | 24 | 43 | 78 | 0.43 | 2.8 | 0.65 | 13 | 96 | 46 | 8.2 |  |
| NC(=O)c1ccn(C2=CC3CN(C2)C(=O)N3OS(=O)(=O)[O-])n1.[Na+] (stereo not drawn) [Example 19, sodium [3-(3-carbamoylpyrazol-1-yl)-7-oxo-1,6-diazabicyclo[3.2.1]oct-3-en-6-yl]sulfate] | 8 | 4 | 16 | 16 | > 32 | 41 | 19 | 170 | 61 | 0.38 | 1.8 | 0.9 | 6.2 | 110 | 27 | 5.2 |  |
| O=C1N2CC(n3cc(C(F)(F)F)cn3)=CC(C2)N1OS(=O)(=O)[O-].[Na+] (stereo not drawn) [Example 22, sodium [7-oxo-3-[4-(trifluoromethyl)pyrazol-1-yl]-1,6-diazabicyclo[3.2.1]oct-3-en-6-yl]sulfate] | > 32 | > 32 | > 32 | > 32 | > 32 | 12 | 17 | 78 | 9.1 | 0.21 | 1.1 | 0.55 | 3 | 180 | 220 | 4.6 |  |
| O=C(Nc1nccs1)c1ccn(C2=CC3CN(C2)C(=O)N3OS(=O)(=O)[O-])n1.[Na+] (stereo not drawn) [Example 25, sodium [7-oxo-3-[3-(thiazol-2-ylcarbamoyl)pyrazol-1-yl]-1,6-diazabicyclo[3.2.1]oct-3-en-6-yl]sulfate] | > 32 | > 32 | > 32 | > 32 | > 32 | 9.2 | 9.4 | 130 | 12 | 0.29 | 1.2 | 0.43 | 2.5 | 37 | 4.2 | 1.7 |  |
